Results on eight compounds are retold here after US20090036821A1 (priority 2005, published 2009).

Data set [1] can be described thus: Conductivity of donor solution. Type of data set: physicochemical.
For data set [2] the following is noted: for Iontophoretic flux of nicotine versus passive delivery of nicotine base: 500 mM citrate buffer with 50 mM NaCl, current terminated after 4 hours, FIG. 3; for Flux of nicotine after termination of current: current terminated at 4 hrs, 50 mM HEPES, FIG. 6; for Lagtime / Flux: iontophoresis (ITP), donor pH 5.5, 50 mM HEPES; for Flux: steady state when current is present, 0.5 mA/sq.cm; for Flux of nicotine, iontophoresis of salt versus passive permeation of nicotine base / Lagtime during iontophoresis versus passive permeation of nicotine base: iontophoresis at pH 5.5 versus passive base pH 8, FIG. 8. The procedure: The following methodology was employed in the examples described herein: Dermatomed human skin stored at −80° C. was thawed just prior to use. Each permeation experiment consisted of four replicates. The skin for each replicate was obtained from a different donor so that the variation was randomized. Skin was mounted on Valia-Chien (horizontal) diffusion cells for these in vitro permeation studies, with stratum corneum side facing the donor side. The receptor compartment was filled with pH 7.4 phosphate buffer (50 mM). […] Prior to use, both donor and receptor solutions were degassed by helium sparging. The temperature of the water bath was set to 32° C. Both donor and receptor compartments were continuously stirred. For iontophoresis, silver wire was used as the anode in the donor compartment and silver/silver chloride as cathode in the receptor compartment. A current of 0.5 mA/sq.cm was applied for 4 hours. Samples taken periodically from the receptor compartment were analyzed by HPLC assay. An Xterra RP18 column was used and the detection wavelength was 261 nm. The mobile phase was 85:15 buffer:acetonitrile, pumped at 1 mL/min and retention time was about 3 minutes.
Iontophoretic current was terminated after 4 hours.
Iontophoretic delivery of nicotinium dihydrochloride salt was also studied in 50 mM HEPES buffer, adjusted to pH 5.5 with NaOH.
The flux is calculated at steady state when current is present for the iontophoresis experiments.

[3] abbreviates: donor solution for iontophoresis, donor pH 5.5, 50 mM HEPES.

Structures can show the parent of a compound that is named as a salt. Where two headings read alike, the source gives them in different places.

Take `CN1CCCC1c1cccnc1` (centres unmarked) [Base, nicotine]: the “Passive transport of nicotine, pH 8 versus pH 5.5” value (non-ionized form at pH 8 compared to monocationic form at pH 5.5) is “higher at pH 8”. The compound also returned a Lagtime (passive permeation, donor pH 8) of 87 min. In addition, the Flux (passive permeation, donor pH 8, 1% nicotine, human skin) is listed as 0.1053 mg/cm^2-hr. Besides, the Conductivity in data set [1] (donor solution for passive permeation, donor pH 8) is recorded as 4.73 mS/cm. Moreover, the “Nicotine permeation, iontophoresis versus passive delivery” value in data set [2] (both conditions evaluated (pH 5.5 and pH 8 buffers), FIGS. 1 and 2) is on record as “Iontophoresis enhanced nicotine permeation compared to passive nicotine delivery”.
In the case of `CN1CCCC1c1cccnc1.O=C(O)C(O)C(O)C(=O)O` (centres unmarked) [Bitartrate, nicotine bitartrate], the Conductivity in data set [1] (setting [3]) came out at 16.3 mS/cm. For the same compound, the “Conductivity of donor solution” value in data set [1] (in 50 mM HEPES buffer, pH 5.5) is given as 16300 μmhos/cm. Moreover, the “Conductivity of donor solution” value in data set [1] (in 500 mM citrate buffer) was determined as 66400 μmhos/cm. In data set [2], the “Iontophoretic flux of nicotine versus passive delivery of nicotine base” value is reported as “less than the flux from the passive delivery of nicotine base at pH 8”, the “Flux of nicotine after termination of current” value is recorded as “decreased sharply”, the Lagtime is reported as 10 min and the Flux is recorded as 0.2073 mg/cm^2-hr. Further, in data set [2] (iontophoresis, 50 mM HEPES buffer pH 5.5), the “Flux of nicotine, 50 mM HEPES buffer versus 500 mM citrate buffer” value was “higher than the nicotine flux from a 500 mM citrate buffer”.
Consider `CN1CCCC1c1cccnc1.O=C(O)CC(O)(CC(=O)O)C(=O)O` [Citrate, nicotine citrate], for which, in data set [1] (setting [3]), the Conductivity worked out at 13.3 mS/cm. Moreover, in data set [2], the Lagtime was 9 min; the Flux amounted to 0.332 mg/cm^2-hr; the “Flux of nicotine, iontophoresis of salt versus passive permeation of nicotine base” value is “increased”; the “Lagtime during iontophoresis versus passive permeation of nicotine base” value is reported as “reduced”.
`Br.Br.CN1CCCC1c1cccnc1` (centres unmarked) [HBr] came in with a Conductivity in data set [1] (setting [3]) of 25.9 mS/cm. For the same compound, in data set [2], the Lagtime is listed as 63 min and the Flux turned out to be 0.2771 mg/cm^2-hr.
Take `CN1CCC[C@H]1c1cccnc1` [HCl, nicotinium dihydrochloride]: the Conductivity in data set [1] (setting [3]) is given as 15.4 mS/cm. The “Conductivity of donor solution” value in data set [1] (in 50 mM HEPES buffer, pH 5.5) came to 15400 μmhos/cm. In data set [2], the “Flux of nicotine after termination of current” value is listed as “decreased sharply”, the Lagtime is reported as 22 min and the Flux was found to be 0.2236 mg/cm^2-hr.
In turn, `CN1CCCC1c1cccnc1.O=C(O)/C=C\C(=O)O` (centres unmarked) [Maleate, nicotine maleate] displayed a Conductivity in data set [1] (setting [3]) of 9.31 mS/cm. In data set [2], the Lagtime is listed as 4 min; the Flux is 0.2867 mg/cm^2-hr; the “Flux of nicotine, iontophoresis of salt versus passive permeation of nicotine base” value was “increased”; the “Lagtime during iontophoresis versus passive permeation of nicotine base” value was “reduced”.
With `CN1CCCC1c1cccnc1.O=S(=O)(O)O.O=S(=O)(O)O` (centres unmarked) [SO4], the Conductivity in data set [1] (setting [3]) was determined as 20 mS/cm. In data set [2], this compound registered a Lagtime of 46 min and a Flux of 0.2554 mg/cm^2-hr.
As to nicotine hemisulfate, the “Iontophoretic flux of nicotine versus passive delivery of nicotine base” value in data set [2] is given as “less than the flux from the passive delivery of nicotine base at pH 8”.
